Test results: patent US20100184680A1, “THERAPEUTIC USES OF B-TYPE NATRIURETIC PEPTIDE AND HUMAN GROWTH HORMONE 1-43” (priority 2007, published 2010)
Bridge positions count the residues as written; N and C are the ends. Ends that are not written are not given here.

What was measured:
Human A549 cells = test: Apoptosis prevention assay (C2 ceramide, Annexin-5); assay type: cell-based; conditions: 10 micrograms per ml, 30 min pretreatment
Experimental: Human A549 cells (carcinomic human alveolar basal epithelial cells) were utilized in the experiments employing the Annexin-5 apoptosis assay. […] A549 cells were pretreated for 30 min with test peptides—10 micrograms per ml—followed by the exposure to C2 ceramide.

[1] = test system: Tumor Necrosis Factor-α (TNF-α); test: Th1/Th2 cytokine profiling assay: TNF-α; assay type: cell-based, Balb/c mice; conditions: 10 micrograms per ml; Ovalbumin restimulation; 72 hours
Source text: (§1) The Balb/c mice (originated in 1923, it is a popular strain and is used in many different research disciplines. Also classified as an inbred from the production of 20 or more successive brother-sister matings, the Balb/c mouse is albino and small in size) were immunized on Days 1, 15, and 29 with Ovalbumin (Ovalbumin is the main protein found in egg white, commonly used to stimulate an immunological reaction in test animals) in PBS (5 micrograms/injection). On day 50, spleens of the mice were harvested (3 weeks after last boost with Ovalbumin). Cells were cultured (2×10^5/well in triplicate) and incubated with culture medium or test peptides—10 micrograms per ml—for 30 min. Thereafter, additional Ovalbumin was added to the cells at 10 micrograms/ml for in vitro restimulation of the cells. 72 hours later, cell supernatants were harvested and assayed using the Becton Dickinson Mouse Th1/Th2 Cytokine CBA Kit. This kit can be used to measure Interleukin-2 (IL-2), Interleukin-4 (IL-4), Interleukin-5 (IL-5), Interferon-γ (IFN-γ), and Tumor Necrosis Factor-α (TNF-α) protein levels in a single sample. The kit performance has been optimized for analysis of physiologically relevant concentrations (pg/ml levels) of specific cytokine proteins in tissue culture supernatants and serum samples.

Interferon-γ (IFN-γ) = test: Th1/Th2 cytokine profiling assay: IFN-γ; assay type: cell-based, Balb/c mice; conditions: 10 micrograms per ml; Ovalbumin restimulation; 72 hours
Source text: as §1

Interleukin-2 (IL-2) = test: Th1/Th2 cytokine profiling assay: IL-2; assay type: cell-based, Balb/c mice; conditions: 10 micrograms per ml; Ovalbumin restimulation; 72 hours
Source text: as §1

Interleukin-4 (IL-4) = test: Th1/Th2 cytokine profiling assay: IL-4; assay type: cell-based, Balb/c mice; conditions: 10 micrograms per ml; Ovalbumin restimulation; 72 hours
Source text: (§2) The Balb/c mice (originated in 1923, it is a popular strain and is used in many different research disciplines. Also classified as an inbred from the production of 20 or more successive brother-sister matings, the Balb/c mouse is albino and small in size) were immunized on Days 1, 15, and 29 with Ovalbumin (Ovalbumin is the main protein found in egg white, commonly used to stimulate an immunological reaction in test animals) in PBS (5 micrograms/injection). On day 50, spleens of the mice were harvested (3 weeks after last boost with Ovalbumin). Cells were cultured (2×10^5/well in triplicate) and incubated with culture medium or test peptides—10 micrograms per ml—for 30 min. Thereafter, additional Ovalbumin was added to the cells at 10 micrograms/ml for in vitro restimulation of the cells. 72 hours later, cell supernatants were harvested and assayed using the Becton Dickinson Mouse Th1/Th2 Cytokine CBA Kit.

Interleukin-5 (IL-5) = test: Th1/Th2 cytokine profiling assay: IL-5; assay type: cell-based, Balb/c mice; conditions: 10 micrograms per ml; Ovalbumin restimulation; 72 hours
Source text: as §2

[2] = test system: Primary Human endothelial cells (HUVEC); test: Endothelial cell migration assay; assay type: cell-based; conditions: 10 micrograms per ml, 22 hours
HUVEC = test: Endothelial tube formation assay; assay type: cell-based, human; conditions: 10 micrograms per ml, 20 hours
Source text: Positive control was vehicle only.

[3] = test system: isolated buffer-perfused and ventilated rabbit lung; test: Isolated ventilated and buffer perfused lung model
Experimental: The isolated buffer-perfused and ventilated rabbit lung model is established for the investigation of the lung circulation, parenchyma, bronchial system and metabolic processes. Lungs are prepared from intact animals; the lungs are artificially ventilated and blood-free perfused. This model allows the study of pathophysiologic aspects under different conditions. Isolation of the intact lung enables observation of vasoreactivity, ventilation pressures and gas exchange avoiding humoral, central or metabolic influence. Lungs were perfused with test peptide BNP using a pulsatile flow roller pump in a closed system with recirculating buffer fluid. A rabbit ventilator enables the artificial ventilation with room air/carbon dioxide-mixture (CO2). Parameters continuosly measured include lung artery and left atrial pressure and ventilation pressure. Registration of lung weight gain serves as a parameter for development of lung edema. Samples of buffer fluid can be taken through the catheters.
Rabbits (New Zealand white bastards) of either sex, weighing 2.2-2.5 kg were anesthetized, using ketamine (Ketamin Inresa®, Inresa, Freiburg, Germany) and xylazine (Rompun®, Bayer, Leverkusen, Germany). Animals were anticoagulated with heparin (1000 U/kg body weight). After tracheotomy artificial ventilation was started with room air using a Havard respirator (tidal volume 8-12 ml/kg, frequency 30 breaths/min). Midsternal thoracotomy followed in a deep analgosedation and catheters were placed into the pulmonary artery and the left atrium. Lungs were perfused with sterile Krebs-Henseleit hydroxyethylamylopectine buffer (120 mM NaCl, 4.3 mM KCl, 1.1 mM KH2PO4, 25 mM NaHCO3, 2.4 mM CaCl2, 1.3 mM […], 2.4 g/L glucose) and 2.5% hydroxyethylamylopectine (mol weight 200,000) as an oncotic agent (Serag Wiesner, Naila, Germany). All concentrations are given as the final concentration in the buffer fluid.
The isolated lungs were freely suspended from an electronic force transducer (Transducer U1, Hottinger Baldwin Messtechnik, Darmstadt, Germany) in a humidified and tempered glas thorax. Perfusion was performed at a constant rate of 120 mL/min in a recirculating manner (total perfusate volume 300 mL), and the whole system was heated to 38° C. Room air, supplemented with ˜4% carbon dioxide was used for artificial ventilation to reach a pH of 7.34 to 7.38 and a positive end exspiratory pressure (PEEP) was set at 1-1.3 mmHg. Pressure in left atrium was set at 1.2 mmHg (reference point hilum). Pulmonary artery and ventilation pressures were continuously measured and are shown as mean values.
Independent variables in all experiments were: constant perfusion flow rate of 120 ml/min and a ventilator setting (tidal volume 8-12 ml/kg; frequency 30 breaths/min). The main dependent variables included: pressures in trachea and artery which were continuously measured. Lung weight gain as a parameter of lung edema formation was also continuously registered. Under constant flow condition, elevation of the artery pressure directly reflected an increase in vascular resistance.
Thromboxan A2 mimetic U46619 induces vasoconstriction: Lung artery pressure under resting conditions is about 8 mmHg. Slow titration, followed by continuous infusion of the thromboxan A2 mimetic U46619 causes precapillary vasoconstriction of about 25 mmHg. An observation period of up to 3 hours is accessible for further intervention.
Endothelin 1 (ET1) vasoconstricts the lung vasculature and leads to increased pressure in the isolated rabbit lung in a biphasic matter that is dose dependent. Infusion or inhalation of the test peptide of the invention is tested for therapeutic effect of lowering the vasoconstriction.
All data are shown as mean and standard error of mean (SEM). For primary data analysis, comparison was performed between the U46619 group and intravascular administered peptide. […]

cGMP = test: Cyclic GMP measurement in the rabbit lung model; conditions: buffer samples from left atrial catheter; RIA; administration dependent
Experimental: Buffer samples were drawn from the left atrial catheter in the isolated buffer-perfused and ventilated rabbit lung model at predefined time points, every 30 minutes in the control group and every 15 minutes in the intervention groups. Samples were immediately frozen and stored at −80° Celsius. Analysis of cGMP was performed using a commercially available radio immuno (RIA) assay kit.

HIV-1IIIB = test: HIV-1 antiviral assay in CEM-SS cells
HCMV strain AD169 = test: HCMV plaque formation assay in MRC-5 cells; assay type: cell-based
[4] = increasing doses of 5, 10 and 100 nM, isolated rabbit lung

Ser-Pro-Lys-Met-Val-Gln-Gly-Ser-Gly-Cys-Phe-Gly-Arg-Lys-Met-Asp-Arg-Ile-Ser-Ser-Ser-Ser-Gly-Leu-Gly-Cys-Lys-Val-Leu-Arg-Arg-His [Peptide 1]
prevented (reduced) ceramide-induced apoptosis on human lung cells (Human A549 cells): 14.4% | TNF-a spleen cells; TH1 response (% of control) [1]: 93.1 % of control | IFNγ spleen cells; TH1 response (% of control) (Interferon-γ (IFN-γ)): 66.1 % of control | IL-2 spleen cells (% of control) (Interleukin-2 (IL-2)): 0.0 % of control | IL-4 spleen cells; TH2 response (% of control) (Interleukin-4 (IL-4)): 0.0 % of control | IL-5 spleen cells; TH2 response (% of control) (Interleukin-5 (IL-5)): 92.7 % of control | inhibited the migration of human endothelial cells [2]: 21% | inhibited the tube formation of endothelial cells (HUVEC): 3% | arterial pressure under stable high vasoconstriction [3, 4]: rapid and dose dependent decline | lung weight [3, 4]: without affecting | ventilation pressure [3, 4]: without affecting | cGMP levels (cGMP): significantly increased

Phe-Pro-Thr-Ile-Pro-Leu-Ser-Arg-Leu-Phe-Asp-Asn-Ala-Met-Leu-Arg-Ala-His-Arg-Leu-His-Gln-Leu-Ala-Phe-Asp-Thr-Tyr-Gln-Glu-Phe-Glu-Glu-Ala-Tyr-Ile-Pro-Lys-Glu-Gln-Lys-Tyr-Ser-OH (FPTIPLSRLFDNAMLRAHRLHQLAFDTYQEFEEAYIPKEQKYS-OH) [Peptide 2, Human growth Hormone (1-43); HGH]
prevented (reduced) ceramide-induced apoptosis on human lung cells (Human A549 cells): 18.4% | TNF-a spleen cells; TH1 response (% of control) [1]: 94.0 % of control | IFNγ spleen cells; TH1 response (% of control) (Interferon-γ (IFN-γ)): 60.3 % of control | IL-2 spleen cells (% of control) (Interleukin-2 (IL-2)): 132.2 % of control | IL-4 spleen cells; TH2 response (% of control) (Interleukin-4 (IL-4)): 184.6 % of control | IL-5 spleen cells; TH2 response (% of control) (Interleukin-5 (IL-5)): 78.2 % of control | induced the migration of human endothelial cells [2]: 14% | inhibited the tube formation of endothelial cells (HUVEC): 19%

Endothelin 1 (CSCSSLMDKECVYFCHLDIIW; disulfide 1-15, 3-11; ends not checked; UniProt P05305 53-73, looked up) [ET1, Endothelin 1 (ET1) vasoconstricts the lung vasculature, reference compound]
vasoconstriction (lung artery pressure), stable plateau phase ([3]; administration into the buffer fluid, rise over 60 minutes): 27±2.16 mmHg

CC(C)(C)NC(=O)[C@@H]1CN(Cc2cccnc2)CCN1C[C@@H](O)C[C@@H](Cc1ccccc1)C(=O)N[C@H]1c2ccccc2C[C@H]1O [indinavir]
antiviral activity of positive control compounds (HIV-1) (HIV-1IIIB): expected levels of antiviral activity

Nc1nc(O)c2ncn(COC(CO)CO)c2n1 [Ganciclovir]
antiviral activity of positive control compound (HCMV) (HCMV strain AD169): expected levels of antiviral activity

CCCCC[C@H](O)/C=C/[C@@H]1[C@@H](C/C=C\CCCC(=O)O)[C@H]2CO[C@@H]1C2 [U46619, reference compound]
vasoconstriction (lung artery pressure), plateau at the end of the experiment ([3]; continuous infusion, after another 135 minutes): 25.53±0.9 mmHg | vasoconstriction (lung artery pressure) provoked by continuous infusion ([3]; within 15 minutes, isolated rabbit lung): 25.5±0.26 mmHg

Cc1cn([C@H]2C[C@H](N=[N+]=[N-])[C@@H](CO)O2)c(=O)[nH]c1=O [AZT]
antiviral activity of positive control compounds (HIV-1) (HIV-1IIIB): expected levels of antiviral activity
